The values that follow come from BindingDB's records for doi:10.1021/jm020230j (Sunesis Pharmaceuticals, 2002).

A word on the Ki: it is a measure of affinity in units of concentration, obtained from inhibition or displacement.

What all share (assay): Fluorometric Assay
Holding throughout (conditions): pH 7.4; 25 °C

One experiment deals with T1, Caspase-1 (Homo sapiens, UniProt P29466).
T1 sequence (P29466 whole entry): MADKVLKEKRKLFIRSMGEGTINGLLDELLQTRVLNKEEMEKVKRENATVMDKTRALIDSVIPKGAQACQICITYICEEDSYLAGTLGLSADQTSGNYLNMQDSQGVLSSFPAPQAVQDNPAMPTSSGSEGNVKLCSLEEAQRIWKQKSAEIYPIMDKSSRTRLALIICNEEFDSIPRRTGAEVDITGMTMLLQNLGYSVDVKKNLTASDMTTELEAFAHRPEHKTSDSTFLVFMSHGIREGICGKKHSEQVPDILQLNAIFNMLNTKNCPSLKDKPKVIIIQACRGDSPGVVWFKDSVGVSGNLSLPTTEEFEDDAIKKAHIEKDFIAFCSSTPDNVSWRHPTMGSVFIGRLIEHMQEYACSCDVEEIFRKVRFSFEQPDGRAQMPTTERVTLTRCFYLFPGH
The method, then: (§1) The effectiveness of compounds against the activity of human recombinant caspase-1-8 was measured using fluorometric assays. Assays were carried out in a 96-well flat bottom, polystyrene plates. […] Kinetic data were collected over a 15 min assay run at room temperature. IC50 values were calculated through a four parameter fit curve using the computer application SOFTmax PRO. Ki(apparent) values were calculated using the following equation: Ki(app) = IC50/(1 + [substrate]/Km).

For another experiment, the target named is T2, Caspase-2 (Homo sapiens, UniProt P42575).
T2 sequence (P42575 whole entry): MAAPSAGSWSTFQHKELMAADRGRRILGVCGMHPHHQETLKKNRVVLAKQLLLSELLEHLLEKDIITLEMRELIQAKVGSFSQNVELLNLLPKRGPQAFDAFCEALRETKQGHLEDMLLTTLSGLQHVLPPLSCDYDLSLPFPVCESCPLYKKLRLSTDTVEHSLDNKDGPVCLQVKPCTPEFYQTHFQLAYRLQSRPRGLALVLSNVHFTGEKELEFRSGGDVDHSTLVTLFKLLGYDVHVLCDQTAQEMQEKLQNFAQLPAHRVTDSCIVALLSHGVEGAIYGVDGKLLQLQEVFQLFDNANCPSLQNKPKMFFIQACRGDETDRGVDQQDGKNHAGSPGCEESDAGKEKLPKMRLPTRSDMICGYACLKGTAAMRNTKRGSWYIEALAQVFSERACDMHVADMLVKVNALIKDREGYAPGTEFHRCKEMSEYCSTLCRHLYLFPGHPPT
The method, then:
as §1

The target of the next experiment is T3, Caspase-3 (Homo sapiens, UniProt P42574).
T3 sequence (P42574 whole entry): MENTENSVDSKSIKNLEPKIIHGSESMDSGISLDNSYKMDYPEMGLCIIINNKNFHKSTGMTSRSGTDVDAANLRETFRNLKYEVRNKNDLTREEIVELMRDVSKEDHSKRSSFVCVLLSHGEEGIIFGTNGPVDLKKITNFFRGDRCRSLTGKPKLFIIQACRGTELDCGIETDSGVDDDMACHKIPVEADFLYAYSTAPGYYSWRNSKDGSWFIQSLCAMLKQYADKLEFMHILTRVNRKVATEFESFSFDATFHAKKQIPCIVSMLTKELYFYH
The method, then:
as §1

In the next experiment the target is T4, Caspase-4 (Homo sapiens, UniProt P49662).
T4 sequence (P49662 whole entry): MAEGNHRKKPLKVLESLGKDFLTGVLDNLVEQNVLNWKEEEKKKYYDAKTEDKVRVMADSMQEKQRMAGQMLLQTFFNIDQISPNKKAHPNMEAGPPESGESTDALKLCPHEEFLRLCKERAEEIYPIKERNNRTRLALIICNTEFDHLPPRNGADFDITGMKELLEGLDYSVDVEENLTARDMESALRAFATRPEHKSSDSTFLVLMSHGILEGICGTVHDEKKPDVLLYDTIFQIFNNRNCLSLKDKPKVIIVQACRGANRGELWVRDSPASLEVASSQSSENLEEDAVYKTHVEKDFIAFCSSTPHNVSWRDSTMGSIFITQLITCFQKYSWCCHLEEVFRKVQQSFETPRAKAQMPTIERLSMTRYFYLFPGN
The method, then: as §1

The next experiment deals with T5, Caspase-6 (Homo sapiens, UniProt P55212).
T5 sequence (P55212 whole entry): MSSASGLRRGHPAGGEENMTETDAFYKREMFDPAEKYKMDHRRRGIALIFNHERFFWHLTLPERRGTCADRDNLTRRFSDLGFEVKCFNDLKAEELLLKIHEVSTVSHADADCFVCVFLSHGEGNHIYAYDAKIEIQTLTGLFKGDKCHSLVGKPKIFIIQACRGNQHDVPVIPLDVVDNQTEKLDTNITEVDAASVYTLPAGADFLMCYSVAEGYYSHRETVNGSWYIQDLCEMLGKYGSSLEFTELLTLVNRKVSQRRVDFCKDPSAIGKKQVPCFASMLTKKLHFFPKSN
The method, then:
as §1

For another experiment, the target named is T6, Caspase-7 (Homo sapiens, UniProt P55210).
T6 sequence (P55210 whole entry): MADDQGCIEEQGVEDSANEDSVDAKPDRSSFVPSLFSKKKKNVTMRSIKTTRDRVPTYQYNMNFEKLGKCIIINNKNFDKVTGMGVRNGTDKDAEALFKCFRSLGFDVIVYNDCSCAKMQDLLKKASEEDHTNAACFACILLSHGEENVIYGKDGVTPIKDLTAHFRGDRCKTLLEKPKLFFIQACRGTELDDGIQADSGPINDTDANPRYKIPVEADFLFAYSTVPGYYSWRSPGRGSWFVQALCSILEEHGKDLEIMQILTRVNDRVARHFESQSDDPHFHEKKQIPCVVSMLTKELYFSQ
The method, then: as §1

The target of the next experiment is Caspase-8 (Homo sapiens, UniProt Q14790). The method, then:
as §1

Chain of Caspase-8 (Q14790 217-374 limits assumed): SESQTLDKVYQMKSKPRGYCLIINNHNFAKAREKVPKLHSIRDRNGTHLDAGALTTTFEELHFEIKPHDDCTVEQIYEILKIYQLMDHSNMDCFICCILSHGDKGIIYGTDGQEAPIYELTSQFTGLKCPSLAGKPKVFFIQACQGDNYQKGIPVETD
Chain of Caspase-8 (Q14790 385-479 limits assumed): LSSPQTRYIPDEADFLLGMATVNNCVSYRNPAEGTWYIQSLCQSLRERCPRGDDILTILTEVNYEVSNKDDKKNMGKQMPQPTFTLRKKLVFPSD

For the compound `O=C(O)C[C@H](NC(=O)c1ccc(CNS(=O)(=O)c2ccc(O)c(C(=O)O)c2)nc1)C(=O)CSCc1ccccc1Cl` [(S)-5-({5-[1-Carboxymethyl-3-(2-chloro-benzylsulfanyl)-2-oxo-propylcarbamoyl]pyridin-2-ylmethyl}sulfamoyl)-2-hydroxy-benzoic Acid], the inhibitory constant (Ki) was determined as 1500 nM on Caspase-1; 11 µM at Caspase-2; 30 nM on Caspase-3; 38 µM at Caspase-4; 120 nM at Caspase-6; 90 nM at Caspase-7. For the same compound, the affinity on Caspase-8, expressed as Ki, was 810 nM.
